{"source": "patent US12370202B2", "about": "“Methods and compositions for inhibiting the NLRP3 inflammasome and/or LON protease” (TRITERPENOID THERAPEUTICS, INC., priority 2019, dated 2025)", "key": {"NLRP3 inflammasome": {"test_system": "NLRP3 inflammasome", "assay": "NLRP3 inflammasome activation in LPS-primed BMDM, IL-1β ELISA", "format": "cell-based, mouse", "method": "FIG. 4A depicts an experimental design and FIG. 4B is a bar graph. Ixazomib (IXZ) potentiation of NLRP3 inflammasome activation inhibited by CDDO-2P-Im. Bone marrow derived macrophages (BMDM) were treated with Ixazomib (IXZ) and LPS (100 ng/ml) for 20 hours. Primed-BMDM were treated with CDDO-2P-Im (100 nM) for 15 min, followed by stimulation of ATP (5 mM) for 45 min. Supernatant were analyzed by ELISA for IL-1β release.\nFIG. 6 is a set of bar graphs. CDDO-Im, CDDO-2P-Im (right panel), and CDDO-3P-Im (left panel) inhibit IL-1β production by NLRP3 inflammasome activation. LPS primed-BMDM were treated with different doses of CDDO-Im, CDDO-2P-Im, or CDDO-3P-Im for 15 min before ATP (5 mM) was added for 45 min. Supernatant were analyzed by ELISA for IL-1β.\nTo explore the potential that CDDO-2P-IM may enhance the MM response to proteasome inhibitors via inhibition of inflammasome activity, the effect of CDDO-2P-IM on activation of the NLRP3 complex (as defined by IL-1β production), in the presence or absence of IXZ in primary mouse bone marrow derived macrophages (BMDM) was evaluated. In the experiment, BMDM were primed by lipopolysaccharide (LPS) in the presence or absence of IXZ for 4 hours, followed by a brief ([…]) exposure to CDDO-2P-IM after which inflammasome activation was triggered by ATP.\nThe effects of the pyridyl derivatives of CDDO-IM, (specifically, CDDO-2P-Im and CDDO-3P-Im) on NLRP3 inflammasome activation were tested in mouse BMDMs. Cells were first primed with LPS for 4 hours, then pretreated with specific doses of either CDDO-Im, CDDO-2P-IM or CDDO-3P-Im (30-1000 nM) for 15 min before ATP was added for another 45 min. CDDO-Im and its pyridyl derivatives inhibited the amount of caspase-p10 (an auto-processed fragment of caspase-1) released into cell culture supernatants in a dose-dependent manner as measured by Western blot (FIG. 5). […] The effect on caspase-1 activation is specific for the NLRP3 inflammasome as the AIM2 inflammasome activation by poly(dA:dT) was not inhibited by the synthetic CDDO-Im derivatives (data not shown)."}, "NLRP3": {"test_system": "NLRP3", "assay": "Mono-sodium urate (MSU)-induced peritonitis", "format": "in vivo, Mice", "conditions": "MSU crystals 1 mg/mouse i.p.; lavage four to sixteen hours later", "method": "FIG. 7 is a bar graph. CDDO-Im, CDDO-2P-Im, and CDDO-3P-Im inhibit mono-sodium urate (MSU)-induced peritonitis. Peritoneal cavity IL-1β levels expressed as mean and SEM (n=6).\nMice received intraperitoneal (i.p.) injections of mono-sodium urate (MSU) crystals (1 mg/mouse) in the presence or absence of CDDO-Im, CDDO-2P-Im, or CDDO-3P-Im. Due to its particulate material, MSU crystals are potent activators of the NOD-like receptor NLRP3. Four to sixteen hours later a peritoneal lavage was conducted to collect supernatant from the peritoneal cavity."}, "LN227": {"test_system": "LN227", "assay": "GBM cell growth (confluence), IncuCyte", "format": "cell-based, human", "conditions": "nanomolar concentrations", "method": "(§1) FIG. 8 is a set of line graphs. CDDO-2P-Im suppresses growth of TMZ-resistant human GBM cells in vitro. […] Reduction in confluence is accompanied by the detachment and death of GBM cells. The data reveal that the relatively TMZ-resistant U-87MG is equivalent to LN227 in its sensitivity to CDDO-2P-Im.\n(§2) To define the capacity of CDDO-2P-IM to suppress the growth and viability of GBM, several well-characterized human GBM cell lines (U251, U-87MG, LN227, Gli36Δ5), primary cultures of patient-derived GBM cells (UVM04, D028), and normal human astrocytes (provided by Dr. Arti Gaur, Dartmouth College) were utilized.\n(§3) The activity of CDDO-2P-IM in cultures of human GBM was assessed and similar nanomolar (nM) potency was observed. […] These changes in confluence observed by Incucyte® corresponded with a reduction in cell viability. Doses of CDDO-2P-IM that result in complete cell death of the LN227, U251 and U-87MG cell lines had no effect on the viability of primary human astrocytes in vitro (not shown)."}, "U-87MG": {"test_system": "U-87MG", "assay": "GBM cell growth (confluence), IncuCyte", "format": "cell-based, human", "method": "as §1, §2, §3"}, "U251": {"test_system": "U251", "assay": "GBM cell growth (confluence), IncuCyte", "format": "cell-based, human", "conditions": "not shown", "method": "as §2, §3"}, "[1]": {"test_system": "primary cultures of patient-derived GBM cells", "assay": "Cell viability in primary cultures of human GBM", "format": "cell-based", "method": "as §2, §3"}, "primary human astrocytes": {"test_system": "primary human astrocytes", "assay": "Viability of primary human astrocytes", "format": "cell-based", "conditions": "doses that result in complete cell death of LN227, U251 and U-87MG; not shown", "method": "as §2, §3"}, "CCL2": {"test_system": "CCL2", "assay": "CCL2 expression in LPS-stimulated human macrophages, RT-qPCR", "format": "cell-based", "conditions": "500 pM, 16 hours pretreatment, then 10 ng/ml LPS 24 hours", "method": "FIG. 10 is a bar graph. CDDO-Me, CDDO-Im, CDDO-2P-Im, and CDDO-3P-Im inhibit expression of CCL2 in human macrophages at picomolar concentrations.\nHuman peripheral blood monocytes were isolated using CD14 magnetic beads and differentiated with 20 ng/ml M-CSF for with 5 days and pretreated or not with 300 nM CDDO-Me; 500 pM CDDO-Im; 500 pM CDDO-2p-Im; 500 pM CDDO-3p-Im for 16 hours, followed by stimulation with 10 ng/ml LPS for an additional 24 hours. Total RNA was extracted and analyzed by RT-qPCR (Tagman) for cytokine expression."}}, "data": [{"smiles": "CC1(C)CC[C@]2(C(=O)n3cnc(-c4ccccn4)c3)CC[C@]3(C)[C@H](C(=O)C=C4[C@@]5(C)C=C(C#N)C(=O)C(C)(C)[C@@H]5CC[C@]43C)[C@@H]2C1", "note": "[CDDO-2P-Im, 1-[2-Cyano-3,12-dioxooleana-1,9(11)-dien-28-oyl]-4(-pyridin-2-yl)-1H-imidazole]", "values": [{"measurement": "IL-1β release, IXZ potentiation of NLRP3 inflammasome activation", "setting": "NLRP3 inflammasome; BMDM primed with IXZ and LPS, CDDO-2P-Im 100 nM 15 min before ATP (5 mM) 45 min", "result": "inhibited"}, {"measurement": "NLRP3 inflammasome activation (IL-1β production)", "setting": "NLRP3 inflammasome; BMDM primed with LPS in absence of IXZ, ATP trigger", "result": "direct suppression"}, {"measurement": "IL-1β production by NLRP3 inflammasome activation", "setting": "NLRP3 inflammasome; LPS primed BMDM, different doses (30-1000 nM) 15 min before ATP (5 mM) 45 min, ELISA", "result": "inhibit"}, {"measurement": "MSU-induced peritonitis (peritoneal cavity IL-1β levels)", "setting": "NLRP3", "result": "inhibit"}, {"measurement": "confluence (growth)", "setting": "LN227", "result": "dose-dependent reduction"}, {"measurement": "confluence (growth)", "setting": "U-87MG; nanomolar concentrations", "result": "dose-dependent reduction"}, {"measurement": "GBM cell kill, combination with TMZ", "setting": "U-87MG; suboptimal dose of CDDO-2P-Im combined with TMZ, significance at 0.005 or greater", "result": "significant gain"}, {"measurement": "confluence (growth)", "setting": "U251", "result": "dose-dependent reduction"}, {"measurement": "concentrations at which a significant reduction in cell viability was observed", "setting": "[1]", "result": "below 100 nM"}, {"measurement": "viability", "setting": "primary human astrocytes", "result": "no effect"}, {"measurement": "expression of CCL2", "setting": "CCL2", "result": "inhibit"}]}]}
